Data as given in patent US20240287046A1, “COMPOUNDS AND RADIOLIGANDS FOR TARGETING NEUROTENSIN RECEPTOR AND USES THEREOF” (Full-Life Technologies HK Limited, priority 2022, published 2024).

Columns and labels:
HT-29 tumor-bearing mice = experiment: Biodistribution of radionuclide labeled complexes in HT-29 tumor-bearing mice; type: in vivo, BALB/c nude mice
Description: The BALB/c nude mice (Charles River, Beijing) were utilized to establish the xenografted model for biodistribution study. All animal care and experimental procedure were performed by following the animal protocols approved by the ethics committee of China Institute of Radiation Protection.
Briefly, each mouse was inoculated with approximately 4×10^6 ASPC-1 cells (human pancreatic cancer cell line) or HT-29 cells (human colorectal adenocarcinoma cell line) expressing human NTSR-1 by subcutaneous injection at rear flank. After inoculation, the xenografted tumors were allowed to grow for ˜2-4 weeks till the tumor weight reached to about 0.05 to 0.50 g (0.20 g in average).
Biodistribution studies were performed by administrating the radionuclide labeled test compound at a dose of ˜30-50 μCi (100 μL in 0.9% NaCl, ˜1.11-1.85 MBq, with specific activity 30-250 μCi/nmol) to each animal through tail vein injection.
At different time points after the administration, the mice treated with each compound were euthanized. The tissues and organs of the animals in each group were collected, excised, weighed, and analyzed in a PerkinElmer 2480 WIZARD2γ counter, and the percent injected dose (% ID) and % ID/g of each organ or tissue were calculated.

[1] = test system: ASPC-1 tumor-bearing mice; experiment: Biodistribution of radionuclide labeled complexes in ASPC-1 tumor-bearing mice; type: in vivo, BALB/c nude mice
In short: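 Radiolabeled compound (~30-50 μCi, ~1.11-1.85 MBq, specific activity 30-250 μCi/nmol) was injected i.v. via tail vein into nude mice carrying 0.05-0.50 g subcutaneous NTSR-1-positive human tumors. At set times, tissues were collected, weighed and γ-counted; % ID and % ID/g were calculated.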

COc1cccc(OC)c1-c1cc(C(=O)NC2(C(=O)O)C3CC4CC(C3)CC2C4)nn1-c1ccc(OCCCN(C)CCCN(C)C(=O)CN2CCN(CC(=O)[O-])CCN(CC(=O)[O-])CCN(CC(=O)[O-])CC2)cc1C(C)C.[177Lu+3] (stereo not drawn) [^177Lu-I-7]
% ID/g (72 h) Stomach (HT-29 tumor-bearing mice; Stomach, 72 h): 0.06 ± 0.01 % ID/g | % ID/g (120 h) Stomach (HT-29 tumor-bearing mice; Stomach, 120 h): 0.061 ± 0.03 % ID/g | % ID/g (1 h) Tumor (HT-29 tumor-bearing mice; Tumor, 1 h): 17.04 ± 5.68 % ID/g | % ID/g (4 h) Tumor (HT-29 tumor-bearing mice; Tumor, 4 h): 16.52 ± 12.39 % ID/g | % ID/g (24 h) Tumor (HT-29 tumor-bearing mice; Tumor, 24 h): 20.35 ± 2.62 % ID/g | % ID/g (72 h) Tumor (HT-29 tumor-bearing mice; Tumor, 72 h): 9.3 ± 7.53 % ID/g | % ID/g (120 h) Tumor (HT-29 tumor-bearing mice; Tumor, 120 h): 6.42 ± 3.46 % ID/g | tumor AUC over 72 hours compared to ^177Lu—C2 [1]: significantly higher tumor AUC | % ID/g (1 h) Blood ([1]; Blood, 1 h): 9.79 ± 1.66 % ID/g | % ID/g (4 h) Blood ([1]; Blood, 4 h): 1.8 ± 0.62 % ID/g | % ID/g (24 h) Blood ([1]; Blood, 24 h): 0.07 ± 0.01 % ID/g | % ID/g (72 h) Blood ([1]; Blood, 72 h): 0.01 ± 0 % ID/g | % ID/g (1 h) Femur ([1]; Femur, 1 h): 1.65 ± 0.23 % ID/g | % ID/g (4 h) Femur ([1]; Femur, 4 h): 0.49 ± 0.25 % ID/g | % ID/g (24 h) Femur ([1]; Femur, 24 h): 0.12 ± 0.04 % ID/g | % ID/g (72 h) Femur ([1]; Femur, 72 h): 0.06 ± 0.03 % ID/g | % ID/g (1 h) Heart ([1]; Heart, 1 h): 3.47 ± 0.56 % ID/g | % ID/g (4 h) Heart ([1]; Heart, 4 h): 0.58 ± 0.32 % ID/g | % ID/g (24 h) Heart ([1]; Heart, 24 h): 0.29 ± 0.14 % ID/g | % ID/g (72 h) Heart ([1]; Heart, 72 h): 0.08 ± 0.01 % ID/g | % ID/g (1 h) Intestine ([1]; Intestine, 1 h): 2.53 ± 0.58 % ID/g | % ID/g (4 h) Intestine ([1]; Intestine, 4 h): 1.69 ± 0.45 % ID/g | % ID/g (24 h) Intestine ([1]; Intestine, 24 h): 0.62 ± 0.04 % ID/g | % ID/g (72 h) Intestine ([1]; Intestine, 72 h): 0.19 ± 0.07 % ID/g | % ID/g (1 h) Kidney ([1]; Kidney, 1 h): 2.85 ± 0.45 % ID/g | % ID/g (4 h) Kidney ([1]; Kidney, 4 h): 2.05 ± 0.48 % ID/g | % ID/g (24 h) Kidney ([1]; Kidney, 24 h): 1.2 ± 0.17 % ID/g | % ID/g (72 h) Kidney ([1]; Kidney, 72 h): 0.48 ± 0.12 % ID/g | % ID/g (1 h) Liver ([1]; Liver, 1 h): 3.93 ± 0.43 % ID/g | % ID/g (4 h) Liver ([1]; Liver, 4 h): 1.88 ± 1.00 % ID/g | % ID/g (24 h) Liver ([1]; Liver, 24 h): 0.84 ± 0.09 % ID/g | % ID/g (72 h) Liver ([1]; Liver, 72 h): 0.23 ± 0.01 % ID/g | % ID/g (1 h) Lung ([1]; Lung, 1 h): 3.12 ± 1.25 % ID/g | % ID/g (4 h) Lung ([1]; Lung, 4 h): 1.1 ± 0.49 % ID/g | % ID/g (24 h) Lung ([1]; Lung, 24 h): 0.43 ± 0.14 % ID/g | % ID/g (72 h) Lung ([1]; Lung, 72 h): 0.13 ± 0.1 % ID/g | % ID/g (1 h) Muscle ([1]; Muscle, 1 h): 1.1 ± 0.3 % ID/g | % ID/g (4 h) Muscle ([1]; Muscle, 4 h): 0.27 ± 0.2 % ID/g | % ID/g (24 h) Muscle ([1]; Muscle, 24 h): 0.34 ± 0.3 % ID/g | % ID/g (72 h) Muscle ([1]; Muscle, 72 h): 0.011 ± 0.01 % ID/g | % ID/g (1 h) Pancreas ([1]; Pancreas, 1 h): 0.67 ± 0.28 % ID/g | % ID/g (4 h) Pancreas ([1]; Pancreas, 4 h): 0.24 ± 0.22 % ID/g | % ID/g (24 h) Pancreas ([1]; Pancreas, 24 h): 0.29 ± 0.21 % ID/g | % ID/g (72 h) Pancreas ([1]; Pancreas, 72 h): 0.02 ± 0.01 % ID/g | % ID/g (1 h) Spleen ([1]; Spleen, 1 h): 0.63 ± 0.19 % ID/g | % ID/g (4 h) Spleen ([1]; Spleen, 4 h): 0.58 ± 0.15 % ID/g | % ID/g (24 h) Spleen ([1]; Spleen, 24 h): 0.23 ± 0.11 % ID/g | % ID/g (72 h) Spleen ([1]; Spleen, 72 h): 0.06 ± 0.01 % ID/g | % ID/g (1 h) Stomach ([1]; Stomach, 1 h): 1.01 ± 0.82 % ID/g | % ID/g (4 h) Stomach ([1]; Stomach, 4 h): 0.58 ± 0.59 % ID/g | % ID/g (24 h) Stomach ([1]; Stomach, 24 h): 0.21 ± 0.08 % ID/g | % ID/g (72 h) Stomach ([1]; Stomach, 72 h): 0.04 ± 0.01 % ID/g | % ID/g (1 h) Tumor ([1]; Tumor, 1 h): 15.27 ± 8.72 % ID/g | % ID/g (4 h) Tumor ([1]; Tumor, 4 h): 19.97 ± 10.42 % ID/g | % ID/g (24 h) Tumor ([1]; Tumor, 24 h): 22.83 ± 1.14 % ID/g | % ID/g (72 h) Tumor ([1]; Tumor, 72 h): 18.07 ± 0.98 % ID/g | ratio of tumor AUC verse normal organ AUC ([1]; compared to ^177Lu—C2): significantly improved
